{"source": "PubChem BioAssay (NCI)", "test_in_all_cases": "inhibition of tumour cell growth, NCI panel, 48 h", "key": {"HCT-15 colon": {"tested_on": "HCT-15 colon"}, "EKVX NSCLC": {"tested_on": "EKVX NSCLC"}, "NCI-H522 lung": {"tested_on": "NCI-H522 lung"}, "HCC-2998 colon": {"tested_on": "HCC-2998 colon"}, "SK-MEL-28 melanoma": {"tested_on": "SK-MEL-28 melanoma"}, "U251 CNS": {"tested_on": "U251 CNS"}, "TK-10 renal": {"tested_on": "TK-10 renal"}, "SK-MEL-5 melanoma": {"tested_on": "SK-MEL-5 melanoma"}, "RPMI-8226 leukemia": {"tested_on": "RPMI-8226 leukemia"}, "T-47D breast": {"tested_on": "T-47D breast"}}, "note": "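Where inhibition never reached the appropriate level, the endpoint shown equals the highest concentration tested. Otherwise, values were interpolated linearly from a five-concentration, 48-hour dose response in 96-well plates. GI50 = concentration required for 50% inhibition of growth. TGI denotes the concentration required for complete inhibition of growth.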", "data": [{"molecule": "Cc1cc(Cl)ccc1NC(=O)C1C(=O)N(c2ccc(Cl)cc2C)C(=O)/C1=N\\N", "note": "(configuration not stated)", "values": [{"measurement": "TGI", "setting": "HCT-15 colon", "result": "> 100", "unit": "µM"}, {"measurement": "TGI", "setting": "EKVX NSCLC", "result": "> 100", "unit": "µM"}, {"measurement": "TGI", "setting": "NCI-H522 lung", "result": "> 100", "unit": "µM"}, {"measurement": "TGI", "setting": "HCC-2998 colon", "result": 67.3, "unit": "µM"}, {"measurement": "TGI", "setting": "SK-MEL-28 melanoma", "result": "> 100", "unit": "µM"}, {"measurement": "TGI", "setting": "U251 CNS", "result": "> 100", "unit": "µM"}, {"measurement": "TGI", "setting": "TK-10 renal", "result": 99.3, "unit": "µM"}, {"measurement": "TGI", "setting": "SK-MEL-5 melanoma", "result": "> 100", "unit": "µM"}, {"measurement": "TGI", "setting": "RPMI-8226 leukemia", "result": "> 100", "unit": "µM"}]}, {"molecule": "N#CC(C#N)=C1NC(=O)C(c2ccccc2)C(=O)N1", "note": "(configuration not stated)", "values": [{"measurement": "TGI", "setting": "HCT-15 colon", "result": "> 100", "unit": "µM"}, {"measurement": "TGI", "setting": "EKVX NSCLC", "result": "> 100", "unit": "µM"}, {"measurement": "TGI", "setting": "NCI-H522 lung", "result": "> 100", "unit": "µM"}, {"measurement": "TGI", "setting": "HCC-2998 colon", "result": "> 100", "unit": "µM"}, {"measurement": "TGI", "setting": "U251 CNS", "result": "> 100", "unit": "µM"}, {"measurement": "TGI", "setting": "TK-10 renal", "result": "> 100", "unit": "µM"}, {"measurement": "TGI", "setting": "SK-MEL-5 melanoma", "result": "> 100", "unit": "µM"}, {"measurement": "TGI", "setting": "RPMI-8226 leukemia", "result": "> 100", "unit": "µM"}]}, {"molecule": "O=S1(=O)CSc2ccc3ccccc3c2-c2c1ccc1ccccc21", "values": [{"measurement": "TGI", "setting": "NCI-H522 lung", "result": "> 100", "unit": "µM"}, {"measurement": "TGI", "setting": "HCC-2998 colon", "result": "> 100", "unit": "µM"}, {"measurement": "TGI", "setting": "SK-MEL-28 melanoma", "result": "> 100", "unit": "µM"}, {"measurement": "TGI", "setting": "U251 CNS", "result": "> 100", "unit": "µM"}, {"measurement": "TGI", "setting": "TK-10 renal", "result": "> 100", "unit": "µM"}, {"measurement": "TGI", "setting": "SK-MEL-5 melanoma", "result": "> 100", "unit": "µM"}]}, {"molecule": "NC(=O)NC(=O)CI", "values": [{"measurement": "GI50", "setting": "HCT-15 colon", "result": 1.68, "unit": "µM"}, {"measurement": "TGI", "setting": "HCT-15 colon", "result": 3.55, "unit": "µM"}, {"measurement": "GI50", "setting": "T-47D breast", "result": 1.72, "unit": "µM"}, {"measurement": "TGI", "setting": "T-47D breast", "result": 3.9, "unit": "µM"}, {"measurement": "GI50", "setting": "NCI-H522 lung", "result": 0.208, "unit": "µM"}, {"measurement": "TGI", "setting": "NCI-H522 lung", "result": 0.475, "unit": "µM"}, {"measurement": "GI50", "setting": "HCC-2998 colon", "result": 18.5, "unit": "µM"}, {"measurement": "TGI", "setting": "HCC-2998 colon", "result": 35.1, "unit": "µM"}, {"measurement": "GI50", "setting": "SK-MEL-28 melanoma", "result": 13, "unit": "µM"}, {"measurement": "TGI", "setting": "SK-MEL-28 melanoma", "result": 26.2, "unit": "µM"}, {"measurement": "GI50", "setting": "U251 CNS", "result": 15.3, "unit": "µM"}, {"measurement": "TGI", "setting": "U251 CNS", "result": 29.3, "unit": "µM"}, {"measurement": "GI50", "setting": "SK-MEL-5 melanoma", "result": 12.9, "unit": "µM"}, {"measurement": "TGI", "setting": "SK-MEL-5 melanoma", "result": 26.4, "unit": "µM"}, {"measurement": "GI50", "setting": "RPMI-8226 leukemia", "result": 5.38, "unit": "µM"}, {"measurement": "TGI", "setting": "RPMI-8226 leukemia", "result": 13.1, "unit": "µM"}]}, {"molecule": "Cc1cc(S(N)(=O)=O)c(S/C(=N\\NS(=O)(=O)c2ccc(Cl)cc2)c2ccc(Cl)cc2)cc1Cl", "values": [{"measurement": "GI50", "setting": "HCT-15 colon", "result": "> 100", "unit": "µM"}, {"measurement": "TGI", "setting": "HCT-15 colon", "result": "> 100", "unit": "µM"}, {"measurement": "GI50", "setting": "EKVX NSCLC", "result": "> 100", "unit": "µM"}, {"measurement": "TGI", "setting": "EKVX NSCLC", "result": "> 100", "unit": "µM"}, {"measurement": "GI50", "setting": "NCI-H522 lung", "result": "> 100", "unit": "µM"}, {"measurement": "TGI", "setting": "NCI-H522 lung", "result": "> 100", "unit": "µM"}, {"measurement": "GI50", "setting": "SK-MEL-28 melanoma", "result": "> 100", "unit": "µM"}, {"measurement": "TGI", "setting": "SK-MEL-28 melanoma", "result": "> 100", "unit": "µM"}, {"measurement": "GI50", "setting": "U251 CNS", "result": 62.8, "unit": "µM"}, {"measurement": "TGI", "setting": "U251 CNS", "result": "> 100", "unit": "µM"}, {"measurement": "GI50", "setting": "TK-10 renal", "result": "> 100", "unit": "µM"}, {"measurement": "TGI", "setting": "TK-10 renal", "result": "> 100", "unit": "µM"}, {"measurement": "GI50", "setting": "SK-MEL-5 melanoma", "result": "> 100", "unit": "µM"}, {"measurement": "TGI", "setting": "SK-MEL-5 melanoma", "result": "> 100", "unit": "µM"}, {"measurement": "GI50", "setting": "RPMI-8226 leukemia", "result": 22, "unit": "µM"}, {"measurement": "TGI", "setting": "RPMI-8226 leukemia", "result": "> 100", "unit": "µM"}]}, {"molecule": "CC(C)(C)c1ccccc1NS(=O)(=O)c1ccccc1", "values": [{"measurement": "TGI", "setting": "HCT-15 colon", "result": "> 100", "unit": "µM"}, {"measurement": "TGI", "setting": "EKVX NSCLC", "result": "> 100", "unit": "µM"}, {"measurement": "TGI", "setting": "HCC-2998 colon", "result": "> 100", "unit": "µM"}, {"measurement": "TGI", "setting": "SK-MEL-28 melanoma", "result": "> 100", "unit": "µM"}, {"measurement": "TGI", "setting": "U251 CNS", "result": "> 100", "unit": "µM"}, {"measurement": "TGI", "setting": "TK-10 renal", "result": "> 100", "unit": "µM"}, {"measurement": "TGI", "setting": "SK-MEL-5 melanoma", "result": "> 100", "unit": "µM"}, {"measurement": "TGI", "setting": "RPMI-8226 leukemia", "result": "> 100", "unit": "µM"}]}, {"molecule": "Cc1cc2c(=O)cc(-c3ccc(Cl)cc3)oc2c(C(=O)O)c1C", "values": [{"measurement": "TGI", "setting": "HCT-15 colon", "result": "> 100", "unit": "µM"}, {"measurement": "TGI", "setting": "EKVX NSCLC", "result": "> 100", "unit": "µM"}, {"measurement": "TGI", "setting": "NCI-H522 lung", "result": "> 100", "unit": "µM"}, {"measurement": "TGI", "setting": "SK-MEL-28 melanoma", "result": "> 100", "unit": "µM"}, {"measurement": "TGI", "setting": "U251 CNS", "result": "> 100", "unit": "µM"}, {"measurement": "TGI", "setting": "TK-10 renal", "result": "> 100", "unit": "µM"}, {"measurement": "TGI", "setting": "SK-MEL-5 melanoma", "result": "> 100", "unit": "µM"}, {"measurement": "TGI", "setting": "RPMI-8226 leukemia", "result": "> 100", "unit": "µM"}]}, {"molecule": "O=C(/C=C/c1ccccc1F)C(c1ccccc1)c1ccccc1", "values": [{"measurement": "TGI", "setting": "HCT-15 colon", "result": 23.8, "unit": "µM"}, {"measurement": "TGI", "setting": "EKVX NSCLC", "result": 24.4, "unit": "µM"}, {"measurement": "TGI", "setting": "NCI-H522 lung", "result": 8.29, "unit": "µM"}, {"measurement": "TGI", "setting": "SK-MEL-28 melanoma", "result": 6.84, "unit": "µM"}, {"measurement": "TGI", "setting": "U251 CNS", "result": 13, "unit": "µM"}, {"measurement": "TGI", "setting": "TK-10 renal", "result": 14.6, "unit": "µM"}, {"measurement": "TGI", "setting": "RPMI-8226 leukemia", "result": "> 100", "unit": "µM"}]}, {"molecule": "O=C(NC(=S)NS(=O)(=O)c1ccc(N2N=C3c4ccccc4CC3C2c2cccs2)cc1)c1ccccc1", "note": "(configuration not stated)", "values": [{"measurement": "GI50", "setting": "HCT-15 colon", "result": 30.2, "unit": "µM"}, {"measurement": "TGI", "setting": "HCT-15 colon", "result": "> 100", "unit": "µM"}, {"measurement": "GI50", "setting": "T-47D breast", "result": 69.6, "unit": "µM"}, {"measurement": "TGI", "setting": "T-47D breast", "result": "> 100", "unit": "µM"}, {"measurement": "GI50", "setting": "EKVX NSCLC", "result": 19.6, "unit": "µM"}, {"measurement": "TGI", "setting": "EKVX NSCLC", "result": "> 100", "unit": "µM"}, {"measurement": "GI50", "setting": "NCI-H522 lung", "result": 20.5, "unit": "µM"}, {"measurement": "TGI", "setting": "NCI-H522 lung", "result": 80.9, "unit": "µM"}, {"measurement": "GI50", "setting": "SK-MEL-28 melanoma", "result": 84, "unit": "µM"}, {"measurement": "TGI", "setting": "SK-MEL-28 melanoma", "result": "> 100", "unit": "µM"}, {"measurement": "GI50", "setting": "U251 CNS", "result": 20.1, "unit": "µM"}, {"measurement": "TGI", "setting": "U251 CNS", "result": 82.3, "unit": "µM"}, {"measurement": "GI50", "setting": "SK-MEL-5 melanoma", "result": 16.9, "unit": "µM"}, {"measurement": "TGI", "setting": "SK-MEL-5 melanoma", "result": 46.5, "unit": "µM"}, {"measurement": "GI50", "setting": "RPMI-8226 leukemia", "result": 29.7, "unit": "µM"}, {"measurement": "TGI", "setting": "RPMI-8226 leukemia", "result": "> 100", "unit": "µM"}]}, {"molecule": "CCOC(=O)C(=Cc1ccccc1Br)C(=O)OCC", "values": [{"measurement": "TGI", "setting": "HCT-15 colon", "result": 3.71, "unit": "µM"}, {"measurement": "TGI", "setting": "EKVX NSCLC", "result": 17.3, "unit": "µM"}, {"measurement": "TGI", "setting": "NCI-H522 lung", "result": 4.3, "unit": "µM"}, {"measurement": "TGI", "setting": "HCC-2998 colon", "result": 6.54, "unit": "µM"}, {"measurement": "TGI", "setting": "SK-MEL-28 melanoma", "result": 5.82, "unit": "µM"}, {"measurement": "TGI", "setting": "TK-10 renal", "result": 8.7, "unit": "µM"}, {"measurement": "TGI", "setting": "SK-MEL-5 melanoma", "result": 3.85, "unit": "µM"}, {"measurement": "TGI", "setting": "RPMI-8226 leukemia", "result": "> 100", "unit": "µM"}]}]}
